Results taken from patent publication US20120172385A1, “ORTHO SUBSTITUTED PYRIMIDINE COMPOUNDS AS JAK INHIBITORS” (priority 2009, published 2012).

Columns and labels:
organ transplantation = details: Changelian et al., 2003; cited from earlier work
JAK2 = biological target: T1, JAK2 (Homo sapiens, UniProt O60674); experiment: Kinobeads assay, JAK2 (dot blot detection); type: binding; details: mixed Molt4/Ramos lysate
T1 construct: endogenous in cells; host or cells: Molt4 (ATCC CRL-1582) and Ramos (ATCC CRL-1596) cell lysate, mixed 1:2
Experimental: (§1) The compounds of the present invention as described in the previous examples were tested in a Kinobeads™ assay as described for ZAP-70 (WO-A 2007/137867). Briefly, test compounds (at various concentrations) and the affinity matrix with the immobilized aminopyrido-pyrimidine ligand 24 were added to cell lysate aliquots and allowed to bind to the proteins in the lysate sample. After the incubation time the beads with captured proteins were separated from the lysate. Bound proteins were then eluted and the presence of JAK2 and JAK3 was detected and quantified using specific antibodies in a dot blot procedure and the Odyssey infrared detection system. Dose response curves for individual kinases were generated and IC50 values calculated. Kinobeads™ assays for ZAP-70 (WO-A 2007/137867) and for kinase selectivity profiling (WO-A 2006/134056) have been previously described.
(§2) The affinity matrix was washed two times with 15 mL of 1×DP buffer containing 0.2% NP40 (IGEPAL® CA-630, Sigma, #I3021) and then resuspended in 1×DP buffer containing 0.2% NP40 (3% beads slurry).
(§3) 5×DP buffer: 250 mM Tris-HCl pH 7.4, 25% Glycerol, 7.5 mM MgCl2, 750 mM NaCl, 5 mM Na3VO4; filter the 5×DP buffer through a 0.22 μm filter and store in aliquots at −80° C. The 5×DP buffer is diluted with H2O to 1×DP buffer containing 1 mM DTT and 25 mM NaF.
(§4) Stock solutions of test compounds were prepared in DMSO. In a 96 well plate 30 μL solution of diluted test compounds at 5 mM in DMSO were prepared. Starting with this solution a 1:3 dilution series (9 steps) was prepared. For control experiments (no test compound) a buffer containing 2% DMSO was used.
(§5) Molt4 cells (ATCC catalogue number CRL-1582) and Ramos cells (ATCC catalogue number CRL-1596) were grown in 1 L Spinner flasks (Integra Biosciences, #182101) in suspension in RPMI 1640 medium (Invitrogen, #21875-034) supplemented with 10% Fetal Bovine Serum (Invitrogen) at a density between 0.15×10^6 and 1.2×10^6 cells/mL. Cells were harvested by centrifugation, washed once with 1×PBS buffer (Invitrogen, #14190-094) and cell pellets were frozen in liquid nitrogen and subsequently stored at −80° C. Cells were homogenized in a Potter S homogenizer in lysis buffer: 50 mM Tris-HCl, 0.8% NP40, 5% glycerol, 150 mM NaCl, 1.5 mM MgCl2, 25 mM NaF, 1 mM sodium vanadate, 1 mM DTT, pH 7.5. One complete EDTA-free tablet (protease inhibitor cocktail, Roche Diagnostics, 1873580) per 25 mL buffer was added. The material was dounced 10 times using a mechanized POTTER S, transferred to 50 mL falcon tubes, incubated for 30 minutes on ice and spun down for 10 minutes at 20,000 g at 4° C. (10,000 rpm in Sorvall SLA600, precooled). The supernatant was transferred to an ultracentrifuge (UZ)-polycarbonate tube (Beckmann, 355654) and spun for 1 hour at 100.000 g at 4° C. (33.500 rpm in Ti50.2, precooled). The supernatant was transferred again to a fresh 50 mL falcon tube, the protein concentration was determined by a Bradford assay (BioRad) and samples containing 50 mg of protein per aliquot were prepared. The samples were immediately used for experiments or frozen in liquid nitrogen and stored frozen at −80° C.
(§6) Cell lysate (approximately 50 mg protein per plate) was thawed in a water bath at room temperature and then stored on ice. To the thawed cell lysate 1×DP 0.8% NP40 buffer containing protease inhibitors (1 tablet for 25 mL buffer; EDTA-free protease inhibitor cocktail; Roche Diagnostics 1873580) was added in order to reach a final protein concentration of 10 mg/mL total protein. The diluted cell lysate was stored on ice. Mixed Molt4/Ramos lysate was prepared by combining one volume of Molt4 lysate and two volumes of Ramos lysate (ratio 1:2).
(§7) To a 96 well filter plate (Multiscreen HTS, BV Filter Plates, Millipore #MSBVN1250) were added per well: 100 μL affinity matrix (3% beads slurry), 3 μL of compound solution, and 50 μL of diluted lysate. […]

JAK3 = biological target: T2, JAK3 (Homo sapiens, UniProt P52333); experiment: Kinobeads assay, JAK3 (dot blot detection); type: binding; details: mixed Molt4/Ramos lysate
T2 construct: endogenous in cells; host or cells: Molt4 (ATCC CRL-1582) and Ramos (ATCC CRL-1596) cell lysate, mixed 1:2
T2 sequence (P52333 1-1124): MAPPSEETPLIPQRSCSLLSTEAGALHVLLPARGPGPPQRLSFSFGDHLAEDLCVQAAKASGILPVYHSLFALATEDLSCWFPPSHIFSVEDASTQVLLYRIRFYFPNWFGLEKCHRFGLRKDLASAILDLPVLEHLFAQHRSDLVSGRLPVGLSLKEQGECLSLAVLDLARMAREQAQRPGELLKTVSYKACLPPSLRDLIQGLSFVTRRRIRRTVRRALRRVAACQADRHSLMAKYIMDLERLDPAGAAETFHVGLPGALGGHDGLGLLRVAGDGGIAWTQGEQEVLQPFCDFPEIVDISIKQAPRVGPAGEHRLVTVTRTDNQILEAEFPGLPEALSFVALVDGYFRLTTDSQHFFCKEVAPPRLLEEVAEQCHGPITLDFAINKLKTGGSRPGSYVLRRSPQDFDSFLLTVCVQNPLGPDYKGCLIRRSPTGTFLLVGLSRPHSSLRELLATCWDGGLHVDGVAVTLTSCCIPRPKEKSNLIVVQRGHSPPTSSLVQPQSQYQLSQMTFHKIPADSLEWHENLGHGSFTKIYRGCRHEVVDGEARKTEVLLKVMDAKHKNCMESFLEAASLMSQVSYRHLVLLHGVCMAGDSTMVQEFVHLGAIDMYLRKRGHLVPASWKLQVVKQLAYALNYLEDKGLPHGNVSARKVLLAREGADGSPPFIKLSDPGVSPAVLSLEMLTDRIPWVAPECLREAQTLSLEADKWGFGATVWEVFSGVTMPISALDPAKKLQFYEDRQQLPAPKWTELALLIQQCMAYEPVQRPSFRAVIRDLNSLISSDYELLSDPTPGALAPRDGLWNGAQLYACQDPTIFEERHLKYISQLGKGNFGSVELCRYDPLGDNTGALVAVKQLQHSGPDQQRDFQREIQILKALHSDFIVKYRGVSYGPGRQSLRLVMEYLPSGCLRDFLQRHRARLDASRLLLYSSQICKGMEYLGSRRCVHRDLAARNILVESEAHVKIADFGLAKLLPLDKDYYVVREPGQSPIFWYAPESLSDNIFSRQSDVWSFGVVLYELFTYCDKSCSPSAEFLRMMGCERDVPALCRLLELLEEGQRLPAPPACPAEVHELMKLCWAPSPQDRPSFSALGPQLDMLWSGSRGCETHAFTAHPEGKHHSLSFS
Experimental: as §1, §2, §3, §4, §5, §6, §7

[1] = test system: spontaneous autoimmune diabetes; details: NOD mouse model of type I diabetes; cited from earlier work
GVHD = details: reviewed in Cetkovic-Cvrlje and Ucken, 2004; cited from earlier work

T1 sequence (O60674 whole entry): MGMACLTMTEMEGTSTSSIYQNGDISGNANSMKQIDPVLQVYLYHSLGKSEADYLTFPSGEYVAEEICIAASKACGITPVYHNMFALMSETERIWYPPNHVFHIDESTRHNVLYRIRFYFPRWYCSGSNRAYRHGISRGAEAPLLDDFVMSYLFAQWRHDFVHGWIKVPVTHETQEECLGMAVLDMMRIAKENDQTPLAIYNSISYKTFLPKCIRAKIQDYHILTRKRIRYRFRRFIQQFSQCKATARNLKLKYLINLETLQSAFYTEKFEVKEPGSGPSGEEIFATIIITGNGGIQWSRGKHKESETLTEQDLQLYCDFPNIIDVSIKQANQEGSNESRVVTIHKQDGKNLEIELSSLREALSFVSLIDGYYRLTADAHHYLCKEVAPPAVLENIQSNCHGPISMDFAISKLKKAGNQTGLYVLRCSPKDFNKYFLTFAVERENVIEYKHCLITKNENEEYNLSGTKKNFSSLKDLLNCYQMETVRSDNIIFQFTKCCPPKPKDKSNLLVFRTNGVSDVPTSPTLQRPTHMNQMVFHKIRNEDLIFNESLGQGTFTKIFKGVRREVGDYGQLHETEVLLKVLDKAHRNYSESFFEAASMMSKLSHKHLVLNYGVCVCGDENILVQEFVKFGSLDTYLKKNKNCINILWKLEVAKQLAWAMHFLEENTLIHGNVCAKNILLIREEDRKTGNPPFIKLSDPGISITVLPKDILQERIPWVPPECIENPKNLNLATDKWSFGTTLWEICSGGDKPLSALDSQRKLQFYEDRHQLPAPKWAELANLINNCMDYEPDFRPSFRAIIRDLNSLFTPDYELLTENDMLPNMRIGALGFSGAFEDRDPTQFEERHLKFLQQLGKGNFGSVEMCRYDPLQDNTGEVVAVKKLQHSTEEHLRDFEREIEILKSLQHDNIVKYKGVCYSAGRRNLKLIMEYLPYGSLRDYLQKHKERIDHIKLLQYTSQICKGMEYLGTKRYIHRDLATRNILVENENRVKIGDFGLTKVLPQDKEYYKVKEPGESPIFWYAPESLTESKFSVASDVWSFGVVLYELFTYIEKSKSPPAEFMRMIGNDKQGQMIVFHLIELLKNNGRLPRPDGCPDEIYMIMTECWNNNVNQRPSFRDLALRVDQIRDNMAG

| Structure (SMILES) | efficacy in an animal model of organ transplantation (organ transplantation) | IC50 (JAK2) | IC50 (JAK3) | prevention of spontaneous autoimmune diabetes development [1] | severity of GVHD (GVHD) |
| --- | --- | --- | --- | --- | --- |
| C[C@@H]1CCN(C(=O)CC#N)C[C@@H]1N(C)c1ncnc2[nH]ccc12 [CP-690,550] | show efficacy | – | – | – | – |
| COc1ccc(Nc2nc(Nc3cc(-n4cnnc4)ccc3OC)ncc2Cl)c(NS(C)(=O)=O)c1 [Example 11, N-(2-(5-chloro-2-(2-methoxy-5-(4H-1,2,4-triazol-4-yl)phenylamino)pyrimidin-4-ylamino)-5-methoxyphenyl)methanesulfonamide] | – | 1000 to 10000 nM | < 100 nM | – | – |
| COc1ccc(Nc2nc(Nc3cc(-n4cnnn4)ccc3C)ncc2Cl)c(NS(C)(=O)=O)c1 [Example 12, N-(2-(5-chloro-2-(2-methyl-5-(1H-tetrazol-1-yl)phenylamino)pyrimidin-4-ylamino)-5-methoxyphenyl)methanesulfonamide] | – | 1000 to 10000 nM | < 100 nM | – | – |
| COc1ccc(Nc2nc(Nc3cc(-n4cnnc4)ccc3C)ncc2Cl)c(NS(C)(=O)=O)c1 [Example 13, N-(2-(5-chloro-2-(2-methyl-5-(4H-1,2,4-triazol-4-yl)phenylamino)pyrimidin-4-ylamino)-5-methoxyphenyl)methanesulfonamide] | – | 100 to 1000 nM | < 100 nM | – | – |
| Cc1ccc(C#N)cc1Nc1ncc(Cl)c(Nc2ccccc2NS(C)(=O)=O)n1 [Example 14, N-(2-(5-chloro-2-(5-cyano-2-methylphenylamino)pyrimidin-4-ylamino)phenyl)methanesulfonamide] | – | 1000 to 10000 nM | 100 to 1000 nM | – | – |
| CNC(=O)c1ccc(Cl)c(Nc2ncc(Cl)c(Nc3ccccc3NS(C)(=O)=O)n2)c1 [Example 16, 4-Chloro-3-(5-chloro-4-(2-(methylsulfonamido)phenylamino)pyrimidin-2-ylamino)-N-methylbenzamide] | – | ≥ 10000 nM | 100 to 1000 nM | – | – |
| CNC(=O)c1ccc(OC)c(Nc2ncc(Cl)c(Nc3ccccc3NS(C)(=O)=O)n2)c1 [Example 17, 3-(5-chloro-4-(2-(methylsulfonamido)phenylamino)pyrimidin-2-ylamino)-4-methoxy-N-methylbenzamide] | – | ≥ 10000 nM | < 100 nM | – | – |
| COc1ccc(C(=O)NC(C)C)cc1Nc1ncc(Cl)c(Nc2ccccc2NS(C)(=O)=O)n1 [Example 18] | – | – | < 100 nM | – | – |
| COc1ccc(C(=O)N2CCCCC2)cc1Nc1ncc(Cl)c(Nc2ccccc2NS(C)(=O)=O)n1 [Example 19, N-(2-(5-chloro-2-(2-methoxy-5-(piperidine-1-carbonyl)phenylamino)pyrimidin-4-ylamino)phenyl)methanesulfonamide] | – | ≥ 10000 nM | 100 to 1000 nM | – | – |
| COc1ccc(C(=O)NC2CC2)cc1Nc1ncc(Cl)c(Nc2ccccc2NS(C)(=O)=O)n1 [Example 20] | – | – | < 100 nM | – | – |
| CCNC(=O)c1ccc(OC)c(Nc2ncc(Cl)c(Nc3ccccc3NS(C)(=O)=O)n2)c1 [Example 21] | – | – | < 100 nM | – | – |
| Cc1ccc(C#N)cc1Nc1ncc(Cl)c(Nc2cccc(F)c2NS(C)(=O)=O)n1 [Example 23, N-(2-(5-chloro-2-(5-cyano-2-methylphenylamino)pyrimidin-4-ylamino)-6-fluorophenyl)methanesulfonamide] | – | ≥ 10000 nM | 1000 to 10000 nM | – | – |
| Cc1ccc(C(=O)N(C)C)cc1Nc1ncc(Cl)c(Nc2ccccc2NS(C)(=O)=O)n1 [Example 24, 3-(5-chloro-4-(2-(methylsulfonamido)phenylamino)pyrimidin-2-ylamino)-N,N,4-trimethylbenzamide] | – | ≥ 10000 nM | 100 to 1000 nM | – | – |
| CCS(=O)(=O)Nc1ccccc1Nc1nc(Nc2cc(C#N)ccc2OC)ncc1Cl [Example 25, N-(2-(5-chloro-2-(5-cyano-2-methoxyphenylamino)pyrimidin-4-ylamino)phenyl)ethanesulfonamide] | – | ≥ 10000 nM | 100 to 1000 nM | – | – |
| CCNC(=O)c1ccc(OC)c(Nc2ncc(Cl)c(Nc3ccccc3NS(=O)(=O)CC)n2)c1 [Example 26, 3-(5-chloro-4-(2-(ethylsulfonamido)phenylamino)pyrimidin-2-ylamino)-N-ethyl-4-methoxybenzamide] | – | ≥ 10000 nM | 100 to 1000 nM | – | – |
| CCS(=O)(=O)Nc1ccccc1Nc1nc(Nc2cc(C(=O)NC)ccc2OC)ncc1Cl [Example 27, 3-(5-chloro-4-(2-(ethylsulfonamido)phenylamino)pyrimidin-2-ylamino)-4-methoxy-N-methylbenzamide] | – | ≥ 10000 nM | 100 to 1000 nM | – | – |
| COc1cc2ncnc(Nc3ccc(O)cc3)c2cc1OC [JANEX-1] | – | – | – | prevent spontaneous autoimmune diabetes development | attenuate the severity of GVHD |
